From patent publication US20170290774A1, “NEUROKININ-1 RECEPTOR ANTAGONIST COMPOSITION FOR TREATMENT OF DISEASES AND CONDITIONS OF THE RESPIRATORY TRACT” (PLUS VITECH, S.L., priority 2014, published 2017)
Where “and” joins values, the source holds several entries; their conditions need not be identical. Equal entries are not always repeated.

Assay: Tissue concentration of aprepitant by HPLC after oral or inhaled administration to rabbits
Format: in vivo, New Zealand albino rabbits
Settings: for concentration at 7 days: New Zealand White (albino), rabbit
Description: Herein, New Zealand albino rabbits (New Zealand White Rabbits) with an initial average weight of approximately 3 kg were used. The rabbits were fed ad libitum and were monitored daily to check that signs of toxicity had not appeared. […] This mixture was administered as an aerosol to the airways of a group of 3 of said rabbits (Group 5) in a dose of 0.05 mg/kg body weight per day, to another group of three rabbits (Group 6) in a dose of 0.1 mg/kg body weight per day, to another group of three rabbits (group 7) in a dose of 0.2 mg/kg body weight per day and to another group of three rabbits (Group 8) in a dose of 0.4 mg/kg body weight per day. […] After seven days of treatment all animals were euthanized and necropsied. […] Samples were taken at the peripheral level of the lung parenchyma, just below the pleural surface. Tissue samples were also taken from the nasal cavity, pharynx, larynx and bronchi. […] The average is the arithmetic average calculated for each row or column of each table. The SD is the standard deviation, calculated for each row or column of each table.

[1] = Group 1, oral 10 mg/kg per day, seven days, individual cases, 10 mg/kg/day
[2] = Group 2, oral 40 mg/kg per day, seven days, individual cases, 40 mg/kg/day
[3] = Group 3, oral 80 mg/kg per day, seven days, individual cases, 80 mg/kg/day
[4] = Group 4, oral 100 mg/kg per day, seven days, individual cases, 100 mg/kg/day
[5] = Group 5, inhalation (aerosol, olive oil) 0.05 mg/kg per day, seven days, individual cases, 0.05 mg/kg/day
[6] = Group 6, inhalation (aerosol, olive oil) 0.1 mg/kg per day, seven days, individual cases, 0.1 mg/kg/day
[7] = Group 7, inhalation (aerosol, olive oil) 0.2 mg/kg per day, seven days, individual cases, 0.2 mg/kg/day
[8] = Group 8, inhalation (aerosol, olive oil) 0.4 mg/kg per day, seven days, individual cases, 0.4 mg/kg/day

concentration at 7 days (in vivo, 0.05 mg/kg/day, Lung concentration of aprepitant, Average ± SD of the five lobes per case): 1400 ng/g | concentration at 7 days (in vivo, 0.1 mg/kg/day, Lung concentration of aprepitant, Average ± SD of the five lobes per case): 2800 ng/g | concentration at 7 days (in vivo, 0.2 mg/kg/day, Lung concentration of aprepitant, Average ± SD of the five lobes per case): 6020 ng/g | concentration at 7 days (in vivo, po, 100 mg/kg/day, Lung concentration of aprepitant, Average ± SD of the five lobes per case): 5240 ng/g | concentration at 7 days (lung, left inferior lobe, inhaled, 0.05 mg/kg/day, Lung concentration of aprepitant LIPI (left inferior lobe), Group 5, inhalation (aerosol, olive oil) 0.05 mg/kg per day, seven days, individual cases): 1500 ng/g | concentration at 7 days (lung, left inferior lobe, inhaled, 0.05 mg/kg/day, Lung concentration of aprepitant LIPI, Average ± SD of cases, Group 5, inhalation (aerosol, olive oil) 0.05 mg/kg per day, seven days): 1400 ng/g | concentration at 7 days (lung, left inferior lobe, inhaled, 0.1 mg/kg/day, Lung concentration of aprepitant LIPI (left inferior lobe), Group 6, inhalation (aerosol, olive oil) 0.1 mg/kg per day, seven days, individual cases): 2800 ng/g | concentration at 7 days (lung, left inferior lobe, inhaled, 0.1 mg/kg/day, Lung concentration of aprepitant LIPI, Average ± SD of cases, Group 6, inhalation (aerosol, olive oil) 0.1 mg/kg per day, seven days): 2800 ng/g | concentration at 7 days (lung, left inferior lobe, inhaled, 0.2 mg/kg/day, Lung concentration of aprepitant LIPI (left inferior lobe), Group 7, inhalation (aerosol, olive oil) 0.2 mg/kg per day, seven days, individual cases): 5900 ng/g | concentration at 7 days (lung, left inferior lobe, po, 100 mg/kg/day, Lung concentration of aprepitant LIPI (left inferior lobe), Group 4, oral 100 mg/kg per day, seven days, individual cases): 6100 ng/g | concentration at 7 days (lung, left inferior lobe, po, 100 mg/kg/day, Lung concentration of aprepitant LIPI, Average ± SD of cases, Group 4, oral 100 mg/kg per day, seven days): 5300 ng/g | concentration at 7 days (lung, left superior lobe, inhaled, 0.05 mg/kg/day, Lung concentration of aprepitant LSPI (left superior lobe), Group 5, inhalation (aerosol, olive oil) 0.05 mg/kg per day, seven days, individual cases): 1400 ng/g | concentration at 7 days (lung, left superior lobe, inhaled, 0.05 mg/kg/day, Lung concentration of aprepitant LSPI, Average ± SD of cases, Group 5, inhalation (aerosol, olive oil) 0.05 mg/kg per day, seven days): 1400 ng/g | concentration at 7 days (lung, left superior lobe, inhaled, 0.1 mg/kg/day, Lung concentration of aprepitant LSPI (left superior lobe), Group 6, inhalation (aerosol, olive oil) 0.1 mg/kg per day, seven days, individual cases): 2800 ng/g | concentration at 7 days (lung, left superior lobe, inhaled, 0.1 mg/kg/day, Lung concentration of aprepitant LSPI, Average ± SD of cases, Group 6, inhalation (aerosol, olive oil) 0.1 mg/kg per day, seven days): 2700 ng/g | concentration at 7 days (lung, left superior lobe, inhaled, 0.2 mg/kg/day, Lung concentration of aprepitant LSPI (left superior lobe), Group 7, inhalation (aerosol, olive oil) 0.2 mg/kg per day, seven days, individual cases): 6100 ng/g | concentration at 7 days (lung, left superior lobe, po, 100 mg/kg/day, Lung concentration of aprepitant LSPI (left superior lobe), Group 4, oral 100 mg/kg per day, seven days, individual cases): 4300 ng/g | concentration at 7 days (lung, left superior lobe, po, 100 mg/kg/day, Lung concentration of aprepitant LSPI, Average ± SD of cases, Group 4, oral 100 mg/kg per day, seven days): 4600 ng/g | concentration at 7 days (lung, right inferior lobe, inhaled, 0.05 mg/kg/day, Lung concentration of aprepitant LIPD (right inferior lobe), Group 5, inhalation (aerosol, olive oil) 0.05 mg/kg per day, seven days, individual cases): 1500 ng/g | concentration at 7 days (lung, right inferior lobe, inhaled, 0.05 mg/kg/day, Lung concentration of aprepitant LIPD, Average ± SD of cases, Group 5, inhalation (aerosol, olive oil) 0.05 mg/kg per day, seven days): 1500 ng/g | concentration at 7 days (lung, right inferior lobe, inhaled, 0.1 mg/kg/day, Lung concentration of aprepitant LIPD (right inferior lobe), Group 6, inhalation (aerosol, olive oil) 0.1 mg/kg per day, seven days, individual cases): 2800 ng/g | concentration at 7 days (lung, right inferior lobe, inhaled, 0.1 mg/kg/day, Lung concentration of aprepitant LIPD, Average ± SD of cases, Group 6, inhalation (aerosol, olive oil) 0.1 mg/kg per day, seven days): 2800 ng/g | concentration at 7 days (lung, right inferior lobe, inhaled, 0.2 mg/kg/day, Lung concentration of aprepitant LIPD (right inferior lobe), Group 7, inhalation (aerosol, olive oil) 0.2 mg/kg per day, seven days, individual cases): 6000 ng/g | concentration at 7 days (lung, right inferior lobe, inhaled, 0.2 mg/kg/day, Lung concentration of aprepitant LIPD, Average ± SD of cases, Group 7, inhalation (aerosol, olive oil) 0.2 mg/kg per day, seven days): 6000 ng/g
SMILES: C[C@@H](OC1OCCN(Cc2nc(=O)[nH][nH]2)C1c1ccc(F)cc1)c1cc(C(F)(F)F)cc(C(F)(F)F)c1 (stereo in doubt) [Aprepitant, 5-([(2R,3S)-2-((R)-1-[3,5-bis(trifluoromethyl)phenyl]ethoxy)-3-(4-fluorophenyl)morpholino]methyl)-1H-1,2,4-triazol-3(2H)-one]
Lung concentration of aprepitant LIPD (right inferior lobe) [1]: 0.9 micrograms of aprepitant per gram of lung tissue and 1.0 micrograms of aprepitant per gram of lung tissue | Lung concentration of aprepitant LIPI (left inferior lobe) [1]: 1.4 micrograms of aprepitant per gram of lung tissue and 1.1 micrograms of aprepitant per gram of lung tissue | Lung concentration of aprepitant LMPD (right middle lobe) [1]: 1.4 micrograms of aprepitant per gram of lung tissue and 1.5 micrograms of aprepitant per gram of lung tissue | Lung concentration of aprepitant LSPD (right superior lobe) [1]: 1.1 micrograms of aprepitant per gram of lung tissue and 0.4 micrograms of aprepitant per gram of lung tissue and 1.2 micrograms of aprepitant per gram of lung tissue | Lung concentration of aprepitant LSPI (left superior lobe) [1]: 1.0 micrograms of aprepitant per gram of lung tissue and 0.5 micrograms of aprepitant per gram of lung tissue | Lung concentration of aprepitant LIPD (right inferior lobe) [2]: 3.1 micrograms of aprepitant per gram of lung tissue and 4.2 micrograms of aprepitant per gram of lung tissue | Lung concentration of aprepitant LIPI (left inferior lobe) [2]: 2.8 micrograms of aprepitant per gram of lung tissue and 4.0 micrograms of aprepitant per gram of lung tissue | Lung concentration of aprepitant LMPD (right middle lobe) [2]: 2.9 micrograms of aprepitant per gram of lung tissue and 5.1 micrograms of aprepitant per gram of lung tissue | Lung concentration of aprepitant LSPD (right superior lobe) [2]: 4.1 micrograms of aprepitant per gram of lung tissue and 3.3 micrograms of aprepitant per gram of lung tissue | Lung concentration of aprepitant LSPI (left superior lobe) [2]: 4.2 micrograms of aprepitant per gram of lung tissue and 3.6 micrograms of aprepitant per gram of lung tissue | Lung concentration of aprepitant LIPD (right inferior lobe) [3]: 6.3 micrograms of aprepitant per gram of lung tissue and 5.3 micrograms of aprepitant per gram of lung tissue | Lung concentration of aprepitant LIPI (left inferior lobe) [3]: 3.4 micrograms of aprepitant per gram of lung tissue and 4.3 micrograms of aprepitant per gram of lung tissue | Lung concentration of aprepitant LMPD (right middle lobe) [3]: 5.5 micrograms of aprepitant per gram of lung tissue and 5.3 micrograms of aprepitant per gram of lung tissue | Lung concentration of aprepitant LSPD (right superior lobe) [3]: 4.2 micrograms of aprepitant per gram of lung tissue and 3.3 micrograms of aprepitant per gram of lung tissue | Lung concentration of aprepitant LSPI (left superior lobe) [3]: 5.1 micrograms of aprepitant per gram of lung tissue | Lung concentration of aprepitant LIPD (right inferior lobe) [4]: 5.9 micrograms of aprepitant per gram of lung tissue and 6.1 micrograms of aprepitant per gram of lung tissue | Lung concentration of aprepitant LIPI (left inferior lobe) [4]: 4.8 micrograms of aprepitant per gram of lung tissue and 5.1 micrograms of aprepitant per gram of lung tissue | Lung concentration of aprepitant LMPD (right middle lobe) [4]: 5.1 micrograms of aprepitant per gram of lung tissue and 5.4 micrograms of aprepitant per gram of lung tissue | Lung concentration of aprepitant LSPD (right superior lobe) [4]: 4.8 micrograms of aprepitant per gram of lung tissue and 4.3 micrograms of aprepitant per gram of lung tissue | Lung concentration of aprepitant LSPI (left superior lobe) [4]: 5.2 micrograms of aprepitant per gram of lung tissue and 4.5 micrograms of aprepitant per gram of lung tissue | Lung concentration of aprepitant LIPD (right inferior lobe) [5]: 1.5 micrograms of aprepitant per gram of lung tissue and 1.6 micrograms of aprepitant per gram of lung tissue | Lung concentration of aprepitant LIPI (left inferior lobe) [5]: 1.5 micrograms of aprepitant per gram of lung tissue and 1.4 micrograms of aprepitant per gram of lung tissue | Lung concentration of aprepitant LMPD (right middle lobe) [5]: 1.6 micrograms of aprepitant per gram of lung tissue and 1.5 micrograms of aprepitant per gram of lung tissue | Lung concentration of aprepitant LSPD (right superior lobe) [5]: 1.4 micrograms of aprepitant per gram of lung tissue and 1.5 micrograms of aprepitant per gram of lung tissue | Lung concentration of aprepitant LSPI (left superior lobe) [5]: 1.5 micrograms of aprepitant per gram of lung tissue | Lung concentration of aprepitant LMPD (right middle lobe) (Group 6, inhalation (aerosol, olive oil) 0.1 mg/kg per day, seven days, individual cases): 2.9 micrograms of aprepitant per gram of lung tissue | Lung concentration of aprepitant LIPD (right inferior lobe) [6]: 2.9 micrograms of aprepitant per gram of lung tissue and 2.8 micrograms of aprepitant per gram of lung tissue | Lung concentration of aprepitant LIPI (left inferior lobe) [6]: 2.8 micrograms of aprepitant per gram of lung tissue and 2.9 micrograms of aprepitant per gram of lung tissue | Lung concentration of aprepitant LSPD (right superior lobe) [6]: 2.8 micrograms of aprepitant per gram of lung tissue and 2.9 micrograms of aprepitant per gram of lung tissue | Lung concentration of aprepitant LSPI (left superior lobe) [6]: 2.7 micrograms of aprepitant per gram of lung tissue and 2.8 micrograms of aprepitant per gram of lung tissue | Lung concentration of aprepitant LIPD (right inferior lobe) (Group 7, inhalation (aerosol, olive oil) 0.2 mg/kg per day, seven days, individual cases): 6.0 micrograms of aprepitant per gram of lung tissue | Lung concentration of aprepitant LIPI (left inferior lobe) [7]: 6.0 micrograms of aprepitant per gram of lung tissue and 5.9 micrograms of aprepitant per gram of lung tissue | Lung concentration of aprepitant LMPD (right middle lobe) [7]: 6.0 micrograms of aprepitant per gram of lung tissue and 6.1 micrograms of aprepitant per gram of lung tissue | Lung concentration of aprepitant LSPD (right superior lobe) [7]: 5.9 micrograms of aprepitant per gram of lung tissue and 6.0 micrograms of aprepitant per gram of lung tissue | Lung concentration of aprepitant LSPI (left superior lobe) [7]: 6.1 micrograms of aprepitant per gram of lung tissue and 5.9 micrograms of aprepitant per gram of lung tissue | Lung concentration of aprepitant LIPD (right inferior lobe) [8]: 10.4 micrograms of aprepitant per gram of lung tissue and 10.0 micrograms of aprepitant per gram of lung tissue | Lung concentration of aprepitant LIPI (left inferior lobe) [8]: 10.1 micrograms of aprepitant per gram of lung tissue and 9.9 micrograms of aprepitant per gram of lung tissue | Lung concentration of aprepitant LMPD (right middle lobe) [8]: 10.1 micrograms of aprepitant per gram of lung tissue and 9.9 micrograms of aprepitant per gram of lung tissue | Lung concentration of aprepitant LSPD (right superior lobe) [8]: 10.0 micrograms of aprepitant per gram of lung tissue and 9.8 micrograms of aprepitant per gram of lung tissue | Lung concentration of aprepitant LSPI (left superior lobe) [8]: 10.2 micrograms of aprepitant per gram of lung tissue and 10.0 micrograms of aprepitant per gram of lung tissue
